# Target: T1, recombinant hRIPK2 protein (kinase domain aa 1-299-His-tagged) (Homo sapiens, UniProt O43353)
# T1 construct: kinase domain aa 1-299-His-tagged; purchased Life Technologies PR7829A
# Assay: RIPK2 AlphaLISA assay (displacement of bead-bound CZC-8004 from hRIPK2)
# Assay type: binding
# Conditions: recombinant hRIPK2 kinase domain 10 nM, 2 h at 23° C.
# Source text: RIPK2 AlphaLISA® Assay (Amplified Luminescent Proximity Homogeneous Assay)
# A non-specific kinase inhibitor (CZC-8004 Cayman #916603-07-1) bound to an acceptor bead (#6772001 PerkinElmer) was mixed to the recombinant hRIPK2 protein (kinase domain aa 1-299-His-tagged—Life Technologies PR7829A) and a Ni2+-tagged donor beads (#AS101D PerkinElmer). In the presence of an inhibitor, the compound beads displacement from hRIPK2 was followed by signal loss. In a 384-well ProxiPlate@ (Perkin Elmer, 6008280) add:
# 2 μL RIPK2 inhibitor (in DMSO 0.8%).
# 2 μL human recombinant RIPK2 (10 nM diluted in AlphaLISA buffer 1×).
# 4 μL Mix of […] 1/1000 in AlphaLISA buffer 1×.
# Homogenize using a microtiter plate shaker and incubate for 2 h at 23° C.
# Read using EnVision®-Alpha Reader (PerkinElmer) according to manufacturer specifications.
# T1 sequence (O43353 1-299): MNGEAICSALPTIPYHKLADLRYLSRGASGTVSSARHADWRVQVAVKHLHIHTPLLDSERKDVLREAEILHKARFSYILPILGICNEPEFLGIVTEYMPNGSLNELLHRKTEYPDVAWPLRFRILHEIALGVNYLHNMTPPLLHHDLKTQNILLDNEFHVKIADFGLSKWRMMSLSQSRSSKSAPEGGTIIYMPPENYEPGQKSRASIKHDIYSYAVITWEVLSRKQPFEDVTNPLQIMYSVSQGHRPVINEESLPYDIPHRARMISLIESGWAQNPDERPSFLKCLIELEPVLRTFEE
row,IC50,Compound
1,< 10 nM,"COCCO[C@@H]1C[C@H]2COc3nc4c(cnn4cc3OC)-c3cc(cc(OC(C)C)c3)NCCN2C1=O [Example 131, (12R,14S)-18-methoxy-12-(2-methoxyethoxy)-4-(propan-2-yloxy)-16-oxa-7,10,20,21,24-pentaazapentacyclo[15.5.2.1^2,6.0^10,^14.0^20,^23]pentacosa-1(23),2,4,6(25),17(24),18,21-heptaen-11-one]"
2,100 to 11000 nM,"CCO[C@@H]1C[C@@H]2COc3ccn4ncc(c4n3)-c3cc(cc(OC)c3)NCCN2C1=O [Example 87, (12R,14R)-12-ethoxy-4-methoxy-16-oxa-7,10,20,21,24-pentaazapentacyclo[15.5.2.1^2,6.0^10,^14.0^20,^23]pentacosa-1(23),2,4,6(25),17(24),18,21-heptaen-11-one]"
3,< 10 nM,"COc1cc2cc(c1)-c1cnn3cc(OC)c(nc13)OC[C@@H]1C[C@@H](OC(C)C)C(=O)N1CCN2 [Example 147, (12R,14S)-4,18-dimethoxy-12-(propan-2-yloxy)-16-oxa-7,10,20,21,24-pentaazapentacyclo[15.5.2. 1^2,6.0^10,^14.0^20,^23]pentacosa-1(23),2,4,6(25),17(24),18, 21-heptaen-11-one]"
4,< 10 nM,"[2H]C([2H])([2H])O[C@@H]1C[C@H]2COc3ccn4ncc(c4n3)-c3cc(cc(OC)c3)NCCN2C1=O [Example 37, (12R,14S)-12-(2H3)methoxy-4-methoxy-16-oxa-7,10,20,21,24-pentaazapentacyclo[15.5.2.1^2,6.0^10,^14.0^20,^23]pentacosa-1(23),2,4,6(25),17(24),18,21-heptaen-11-one]"
5,< 10 nM,"CCO[C@@H]1C[C@H]2COc3nc4c(cnn4cc3OC)-c3cc(cc(OC)c3)NCCN2C1=O [Example 132, (12R,14S)-12-ethoxy-4,18-dimethoxy-16-oxa-7,10,20,21,24-pentaazapentacyclo[15.5.2. 1^2,6.0^10,^14.0^20,^23]pentacosa-1(23),2,4,6(25),17(24),18,21-heptaen-11-one]"
6,< 10 nM,C#Cc1cc2cc(c1)-c1cnn3cc(C)c(nc13)OC[C@@H]1C[C@@H](OC)C(=O)N1CCN2 [Example 71]
7,< 10 nM,"CO[C@@H]1C[C@H]2COc3nc4c(cnn4cc3C)-c3cc(Cl)cc(c3)NCCN2C1=O [Example 24, (12R,14S)-4-chloro-12-methoxy-18-methyl-16-oxa-7,10,20,21,24-pentaazapentacyclo[15.5.2.1^2,6.0^10,^14.0^20,^23]pentacosa-1(23),2(25),3,5,17(24),18,21-heptaen-11-one]"
8,< 10 nM,"C#Cc1cc2cc(c1)-c1cnn3cc(OC)c(nc13)OC[C@@H]1C[C@@H](OCCOC)C(=O)N1CCN2 [Example 146, (12R,14S)-4-ethynyl-18-methoxy-12-(2-methoxyethoxy)-16-oxa-7,10,20,21,24-pentaazapentacyclo[15.5.2.1^2,6.0^1°,^14.0^2°,^23]pentacosa-1(23),2,4,6(25),17(24),18,21-heptaen-11-one]"
9,10 to 100 nM,"CO[C@@H]1C[C@H]2COc3nc4c(cnn4cc3C)-c3cc(CO)cc(c3)NCCN2C1=O [Example 64, (12R,14S)-4-(hydroxymethyl)-12-methoxy-18-methyl-16-oxa-7,10,20,21,24-pentaazapentacyclo[15.5.2.1^2,6.0^1°,^14.0^2°,^23]pentacosa-1(23),2,4,6(25),17(24),18,21-heptaen-11-one]"
10,< 10 nM,CO[C@@H]1C[C@H]2COc3nc4c(cnn4cc3-c3cn(C)nc3C)-c3cc(F)cc(c3)NCCN2C1=O [Example 69]
11,< 10 nM,"COCc1cc2cc(c1)-c1cnn3cc(C)c(nc13)OC[C@@H]1CC(OC)C(=O)N1CCN2 (single isomer, unassigned) [Example 65, (12R or S,14S)-12-methoxy-4-(methoxymethyl)-18-methyl-16-oxa-7,10,20,21,24-pentaazapenta cyclo[15.5.2.1^2,6.0^10,14.0^20,23]pentacosa-1(23),2,4,6(25),17(24), 18,21-heptaen-11-one]"
12,100 to 11000 nM,"CO[C@@H]1C[C@H]2COc3ccn4ncc(c4n3)-c3cc(cc(OCC4CC4)c3)NCCN2C1=O [Example 45, (12R,14S)-4-(cyclopropylmethoxy)-12-methoxy-16-oxa-7,10,20,21,24-pentaazapentacyclo[15.5.2.1^2,6.0^10,^14.0^20,^23]pentacosa-1(23),2,4,6(25),17(24),18,21-heptaen-11-one]"
13,< 10 nM,"COCCO[C@@H]1C[C@H]2COc3nc4c(cnn4cc3C)-c3cc(cc(OC)c3)NCCN2C1=O [Example 115, (12R, 14S)-4-methoxy-12-(2-16-oxa-7,10,20,21,24-pentaazapentacyclo[15.5.2. 1^2,6.0^10,^14.0^20,^23]pentacosa-1(23),2,4,6(25),17(24),18, 21-heptaen-11-one]"

# Further lines, the molecule ahead of its results:
row,Compound,IC50
1,"[2H]C([2H])([2H])Oc1cc2cc(c1)-c1cnn3cc(OC)c(nc13)OC[C@@H]1C[C@@H](OCCOC)C(=O)N1CCN2 [Example 141, (12R,14S)-4-(^2H3)methoxy-18-methoxy-12-(2-methoxyethoxy)-16-oxa-7,10,20,21,24-pentaazapentacyclo[15.5.2.1^2,6.0^10,^14.0^20,^23]pentacosa-1(23),2,4,6(25),17(24),18,21-heptaen-11-one]",< 10 nM
2,"COCCO[C@@H]1C[C@H]2COc3ccn4ncc(c4n3)-c3cc(F)cc(c3)NCCN2C1=O [Example 35, (12R,14S)-4-fluoro-12-(2-methoxyethoxy)-16-oxa-7,10,20,21,24-pentaazapentacyclo[15.5.2.1^2,6.01^0,^14.0^20,23]pentacosa-1(23),2,4,6(25),17(24),18,21-heptaen-11-one]",< 10 nM
3,"COCC#Cc1cc2cc(c1)-c1cnn3ccc(nc13)OC[C@@H]1C[C@@H](OCCOC)C(=O)N1CCN2 [Example 100, (12R,14S)-12-(2-methoxyethoxy)-4-(3-methoxyprop-1-yn-1-yl)-16-oxa-7,10,20,21,24-pentaazapentacyclo[15.5.2.1^2,6.0^1°,^14.0^2°,^23]pentacosa-1(23),2(25),3,5,17(24),18,21-heptaen-11-one]",10 to 100 nM
4,"O=C1[C@H](O)C[C@H]2COc3ccn4ncc(c4n3)-c3cc(cc(-n4cccn4)c3)NCCN12 [Example 82, (12R,14S)-12-hydroxy-4-(1H-pyrazol-1-yl)-16-oxa-7,10,20,21,24-pentaazapentacyclo[15.5.2. 1^2,6.0^10,^14.0^20,^23]pentacosa-1(23),2(25),3,5,17(24),18,21-heptaen-11-one]",< 10 nM
5,"[2H]C([2H])([2H])C([2H])([2H])O[C@@H]1C[C@H]2COc3ccn4ncc(c4n3)-c3cc(cc(OC)c3)NCCN2C1=O [Example 110, (12R,14S)-12-(H5)ethoxy-4-methoxy-16-oxa-7,10,20,21,24-pentaazapentacyclo[15.5.2. 1^2,6.0^10,^14.0^20,^23]pentacosa-1(23),2,4,6(25),17(24),18,21-heptaen-11-one]",< 10 nM
6,"O=C1[C@H](O)C[C@H]2COc3ccn4ncc(c4n3)-c3cc(F)cc(c3)NCCN12 [Example 104, (12R,14S)-4-fluoro-12-hydroxy-16-oxa-7,10,20,21,24-pentaazapentacyclo[15.5.2. 1^2,6.0^10,^14.0^20,^23]pentacosa-1(23),2(25),3,5,17(24),18,21-heptaen-11-one]",< 10 nM
7,"[2H]C([2H])([2H])Oc1cc2cc(c1)-c1cnn3ccc(nc13)OC[C@@H]1C[C@@H](OC([2H])([2H])[2H])C(=O)N1CCN2 [Example 53, (12R,14S)-4,12-bis(^2H3)methoxy-16-oxa-7,10,20,21,24-pentaazapentacyclo[[15.5.2.1^2,6.0^10,^14.0^20,^23]pentacosa-1(23),2,4,6(25),17(24),18,21-heptaen-11-one]",< 10 nM
8,"CCO[C@@H]1C[C@H]2COc3ccn4ncc(c4n3)-c3cc(cc(C(=O)NC)c3)NCCN2C1=O [Example 59, (12R,14S)-12-ethoxy-N-methyl-11-oxo-16-oxa-7,10,20,21,24-pentaazapentacyclo[15.5.2.1^2,6.0^10,^14.0^20,^23]pentacosa-1(23),2(25),3,5,17(24),18,21-heptaene-4-carboxamide]",< 10 nM
9,"COc1cc2cc(c1)-c1cnn3ccc(nc13)OC[C@@H]1C[C@@H](OC)C(=O)N1C(C)CN2 (stereo partly drawn) [Example 142, (12R,14S)-4,12-dimethoxy-9-methyl-16-oxa-7,10,20,21,24-pentaazapentacyclo[15.5.2.1^2,6.0^1°,^14.0^2°,^23]pentacosa-1(23),2(25),3,5,17(24),18,21-heptaen-11-one]",10 to 100 nM
10,"O=C1[C@H](F)C[C@H]2COc3ccn4ncc(c4n3)-c3cc(F)cc(c3)NCCN12 [Example 26, (12R,14S)-4,12-difluoro-16-oxa-7,10,20,21,24-pentaazapentacyclo[15.5.2.1^2,6.0^10,^14.0^20,^23]pentacosa-1(23),2,4,6(25),17(24),18,21-heptaen-11-one]",< 10 nM
11,"CO[C@@H]1CC2(C)COc3ccn4ncc(c4n3)-c3cc(F)cc(c3)NCCN2C1=O (single isomer, unassigned) [Example 85]",100 to 11000 nM
12,"COc1cc2cc(c1)-c1cnn3ccc(nc13)OC[C@@H]1C[C@@H](OC(C)C)C(=O)N1CCN2 [Example 16, (12R,14S)-4-methoxy-12-(propan-2-yloxy)-16-oxa-7,10,20,21,24-pentaazapentacyclo[15.5.2.1^2,6.0^10,^14.0^20,^23]pentacosa-1(23),2,4,6(25),17(24),18,21-heptaen-11-one]",< 10 nM
